Here are results for 26 compounds from patent publication US8624040B2, “Substituted hydroxamic acids and uses thereof” (Millennium Pharmaceuticals, Inc., priority 2009, dated 2014).

By IC50 is commonly meant the concentration that inhibits the measured activity by half. A lower IC50 goes with inhibition by little substance.

The target of this assay is T1, purified human HDAC6 (Homo sapiens, UniProt Q9UBN7).
T1 construct: purchased BPS Bioscience 5006
T1 sequence (Q9UBN7 1-1215): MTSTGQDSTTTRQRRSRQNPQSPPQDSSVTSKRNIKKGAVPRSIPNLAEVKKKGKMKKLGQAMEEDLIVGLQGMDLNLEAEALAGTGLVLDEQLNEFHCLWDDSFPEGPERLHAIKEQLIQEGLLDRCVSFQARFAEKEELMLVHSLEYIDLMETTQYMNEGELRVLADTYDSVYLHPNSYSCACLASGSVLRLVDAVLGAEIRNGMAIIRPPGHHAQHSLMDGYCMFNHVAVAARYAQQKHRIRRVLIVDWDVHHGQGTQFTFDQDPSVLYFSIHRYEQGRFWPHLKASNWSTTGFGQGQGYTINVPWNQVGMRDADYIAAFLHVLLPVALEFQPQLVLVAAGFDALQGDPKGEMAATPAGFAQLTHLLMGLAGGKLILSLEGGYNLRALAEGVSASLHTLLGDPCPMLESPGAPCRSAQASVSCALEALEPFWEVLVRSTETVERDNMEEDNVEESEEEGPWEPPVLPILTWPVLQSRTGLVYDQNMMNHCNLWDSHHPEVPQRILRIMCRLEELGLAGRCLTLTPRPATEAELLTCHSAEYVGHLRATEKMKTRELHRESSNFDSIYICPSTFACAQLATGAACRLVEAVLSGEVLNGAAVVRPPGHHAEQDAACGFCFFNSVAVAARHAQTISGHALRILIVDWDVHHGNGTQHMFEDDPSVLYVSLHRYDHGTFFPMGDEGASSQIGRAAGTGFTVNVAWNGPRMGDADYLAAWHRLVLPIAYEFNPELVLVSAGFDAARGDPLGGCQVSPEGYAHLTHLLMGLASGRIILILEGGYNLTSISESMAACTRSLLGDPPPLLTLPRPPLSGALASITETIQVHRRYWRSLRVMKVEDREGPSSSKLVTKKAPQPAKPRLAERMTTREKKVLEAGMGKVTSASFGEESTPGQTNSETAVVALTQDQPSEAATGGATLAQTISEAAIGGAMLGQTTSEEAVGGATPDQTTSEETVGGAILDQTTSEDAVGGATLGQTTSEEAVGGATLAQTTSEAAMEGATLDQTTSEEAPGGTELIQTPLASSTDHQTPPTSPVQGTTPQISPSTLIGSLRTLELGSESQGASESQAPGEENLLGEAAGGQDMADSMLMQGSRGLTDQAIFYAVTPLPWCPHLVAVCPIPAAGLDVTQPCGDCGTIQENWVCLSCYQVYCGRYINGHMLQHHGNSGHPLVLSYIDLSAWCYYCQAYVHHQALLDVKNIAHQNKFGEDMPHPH
The assay can be described thus: HDAC6 Enzyme Assay. Format: biochemical. The following applies: enzyme inhibition, substrate Ac-Arg-Gly-Lys(Ac)-AMC, 1 hour at 30° C. An outline of the steps: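 Purified human HDAC6 incubated 1 h at 30 °C with Ac-Arg-Gly-Lys(Ac)-AMC peptide and compound; reaction stopped with trichostatin A, then trypsin releases AMC, read by fluorescence (Ex 340/Em 460 nm). IC50 from concentration-response curves relative to DMSO controls.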
On to `Cc1c(C(=O)N2CCc3cc(C(=O)NO)sc3C2)cnn1-c1ccccc1` [Compound 187, N-hydroxy-6-[(5-methyl-1-phenyl-1H-pyrazol-4-yl)carbonyl]-4,5,6,7-tetrahydrothieno[2,3-c]pyridine-2-carboxamide], for which the IC50 is less than 50 nM.
Under `CC(C)(C)c1ccc(CC(=O)N2CCc3cc(C(=O)NO)sc3C2)cc1` [Compound 188, 6-[(4-tert-butylphenyl)acetyl]-N-hydroxy-4,5,6,7-tetrahydrothieno[2,3-c]pyridine-2-carboxamide] stands less than 50 nM; under `CC(C)(C)c1ccc(C(=O)N2Cc3cc(C(=O)NO)sc3C(C)(C)C2)cc1` [Compound 190, 5-(4-tert-butylbenzoyl)-N-hydroxy-7,7-dimethyl-4,5,6,7-tetrahydrothieno[3,2-c]pyridine-2-carboxamide], greater than 1000 nM.
`CC1(C)CN(C(=O)c2sc3ccccc3c2Cl)Cc2cc(C(=O)NO)sc21` [Compound 192, 5-[(3-chloro-1-benzothien-2-yl)carbonyl]-N-hydroxy-7,7-dimethyl-4,5,6,7-tetrahydrothieno[3,2-c]pyridine-2-carboxamide] displayed an IC50 greater than 1000 nM.
`Cc1c(C(=O)NO)sc2c1CN(C(=O)c1ccc(Cl)cc1)CC2` [Compound 193, 5-(4-chlorobenzoyl)-N-hydroxy-3-methyl-4,5,6,7-tetrahydrothieno[3,2-c]pyridine-2-carboxamide] came in with an IC50 of less than 50 nM.
Turning to `Cc1c(C(=O)NO)sc2c1CN(C(=O)c1cccn1C)CC2` [Compound 194, N-hydroxy-3-methyl-5-[(1-methyl-1H-pyrrol-2-yl)carbonyl]-4,5,6,7-tetrahydrothieno[3,2-c]pyridine-2-carboxamide], the IC50 is less than 50 nM.
`CC1(C)CN(C(=O)c2cc3ccccc3s2)Cc2cc(C(=O)NO)sc21` [Compound 195, 5-(1-benzothien-2-ylcarbonyl)-N-hydroxy-7,7-dimethyl-4,5,6,7-tetrahydrothieno[3,2-c]pyridine-2-carboxamide] registered an IC50 greater than 1000 nM.
For the compound `CC1(C)CN(C(=O)Nc2ccc(C#N)cc2)Cc2cc(C(=O)NO)sc21` [Compound 196, N^5-(4-cyanophenyl)-N2-hydroxy-7,7-dimethyl-6,7-dihydrothieno[3,2-c]pyridine-2,5(4H)-dicarboxamide], the IC50 was greater than 1000 nM.
In the case of `CC1(C)CN(C(=O)c2ccc3c(c2)OCCCO3)Cc2cc(C(=O)NO)sc21` [Compound 198, 5-(3,4-dihydro-2H-1,5-benzodioxepin-7-ylcarbonyl)-N-hydroxy-7,7-dimethyl-4,5,6,7-tetrahydrothieno[3,2-c]pyridine-2-carboxamide] it was greater than 1000 nM; in that of `Cc1nc(-c2ccccn2)sc1C(=O)N1CCc2sc(C(=O)NO)c(C)c2C1` [Compound 199, N-hydroxy-3-methyl-5-[(4-methyl-2-pyridin-2-yl-1,3-thiazol-5-yl)carbonyl]-4,5,6,7-tetrahydrothieno[3,2-c]pyridine-2-carboxamide], 50 to 100 nM.
The compound `Cc1c(C(=O)NO)sc2c1CN(C(=O)c1cc3ccccc3s1)CC2` [Compound 205, 5-(1-benzothien-2-ylcarbonyl)-N-hydroxy-3-methyl-4,5,6,7-tetrahydrothieno[3,2-c]pyridine-2-carboxamide] registered an IC50 of less than 50 nM.
`COc1ccc(C(=O)N2CCc3sc(C(=O)NO)c(C)c3C2)cc1` [Compound 209, N-hydroxy-5-(4-methoxybenzoyl)-3-methyl-4,5,6,7-tetrahydrothieno[3,2-c]pyridine-2-carboxamide] gave an IC50 of less than 50 nM.
As for `Cn1cccc1C(=O)N1Cc2cc(C(=O)NO)sc2C(C)(C)C1` [Compound 210, N-hydroxy-7,7-dimethyl-5-[(1-methyl-1H-pyrrol-2-yl)carbonyl]-4,5,6,7-tetrahydrothieno[3,2-c]pyridine-2-carboxamide], the IC50 was greater than 1000 nM.
On to `CC(C)(C)OC(=O)N1CCc2sc(C(=O)NO)cc2C1` [Compound 212, tert-butyl 2-[(hydroxyamino)carbonyl]-6,7-dihydrothieno[3,2-c]pyridine-5(4H)-carboxylate], for which the IC50 is less than 50 nM.
In the case of `COc1ccc(C(=O)N2Cc3cc(C(=O)NO)sc3C(C)(C)C2)cc1` [Compound 214, N-hydroxy-5-(4-methoxybenzoyl)-7,7-dimethyl-4,5,6,7-tetrahydrothieno[3,2-c]pyridine-2-carboxamide], the half-inhibitory concentration (IC50) is greater than 1000 nM.
In the case of `Cc1c(C(=O)NO)sc2c1CN(C(=O)c1cc3ccccc3o1)CC2` [Compound 216, 5-(1-benzofuran-2-ylcarbonyl)-N-hydroxy-3-methyl-4,5,6,7-tetrahydrothieno[3,2-c]pyridine-2-carboxamide] it was 50 to 100 nM; in that of `CC1(C)CN(C(=O)c2ccc(Cl)cc2)Cc2cc(C(=O)NO)sc21` [Compound 218, 5-(4-chlorobenzoyl)-N-hydroxy-7,7-dimethyl-4,5,6,7-tetrahydrothieno[3,2-c]pyridine-2-carboxamide], greater than 1000 nM.
The compound `CC1(C)CN(C(=O)c2ccccn2)Cc2cc(C(=O)NO)sc21` [Compound 220, N-hydroxy-7,7-dimethyl-5-(pyridin-2-ylcarbonyl)-4,5,6,7-tetrahydrothieno[3,2-c]pyridine-2-carboxamide] returned an IC50 greater than 1000 nM.
In turn, `Cc1c(C(=O)NO)sc2c1CN(C(=O)c1sc3ccccc3c1Cl)CC2` [Compound 221, 5-[(3-chloro-1-benzothien-2-yl)carbonyl]-N-hydroxy-3-methyl-4,5,6,7-tetrahydrothieno[3,2-c]pyridine-2-carboxamide] yielded an IC50 of 50 to 100 nM.
`Cc1nc(C(=O)N2Cc3cc(C(=O)NO)sc3C(C)(C)C2)cs1` [Compound 222, N-hydroxy-7,7-dimethyl-5-[(2-methyl-1,3-thiazol-4-yl)carbonyl]-4,5,6,7-tetrahydrothieno[3,2-c]pyridine-2-carboxamide]: the IC50 is greater than 1000 nM.
In the case of `CC1(C(=O)N2Cc3cc(C(=O)NO)sc3C(C)(C)C2)CCCCC1` [Compound 224, N-hydroxy-7,7-dimethyl-5-[(1-methylcyclohexyl)carbonyl]-4,5,6,7-tetrahydrothieno[3,2-c]pyridine-2-carboxamide], the IC50 is greater than 1000 nM.
In the case of `Cc1c(C(=O)NO)sc2c1CN(C(=O)c1ccc(C(C)(C)C)cc1)CC2` [Compound 225, 5-(4-tert-butylbenzoyl)-N-hydroxy-3-methyl-4,5,6,7-tetrahydrothieno[3,2-c]pyridine-2-carboxamide] it was 50 to 100 nM; in that of `O=C(NO)c1cc2c(s1)CN(C(=O)C13CC4CC(CC(C4)C1)C3)C2` [Compound 230, 5-(1-adamantylcarbonyl)-N-hydroxy-5,6-dihydro-4H-thieno[2,3-c]pyrrole-2-carboxamide], 50 to 100 nM.
As to `O=C(NO)c1cc2c(s1)CN(C(=O)c1cc3ccccc3s1)C2` [Compound 231, 5-(1-benzothien-2-ylcarbonyl)-N-hydroxy-5,6-dihydro-4H-thieno[2,3-c]pyrrole-2-carboxamide], the IC50 was less than 50 nM.
`Cc1c(C(=O)NO)sc2c1CN(C(=O)c1ccc(-c3ccccc3)cc1)CC2` [Compound 233, 5-(biphenyl-4-ylcarbonyl)-N-hydroxy-3-methyl-4,5,6,7-tetrahydrothieno[3,2-c]pyridine-2-carboxamide] showed an IC50 of less than 50 nM.
As for `CC1(C)CN(C(=O)c2ccccc2Cl)Cc2cc(C(=O)NO)sc21` [Compound 234, 5-(2-chlorobenzoyl)-N-hydroxy-7,7-dimethyl-4,5,6,7-tetrahydrothieno[3,2-c]pyridine-2-carboxamide], the IC50 is greater than 1000 nM.
